Laboratory results published in patent US12544395B2, “Combination compositions comprising a beta-lactamase inhibitor and uses thereof” (priority 2018, dated 2026).
pIC50, pKi: −log10 of the molar value.

How the values were obtained:
[1] = system: KPC-expressing Enterobacteriaceae (n = 77); assay: organism not typed; assay type: cell-based
[2] = system: AmpC/CMY-expressing Enterobacteriaceae (n = 44); assay: Broth microdilution MIC, ceftibuten/Compound 2 vs IV comparators; assay type: cell-based
[3] = Single ascending dose pharmacokinetics, Solutol HS-15:Water (10:90); assay type: in vivo, Beagle dogs; details: beagle, dog, plasma, iv, 10 mg/kg
[4] = biological target: T1, IMP-1 (Serratia marcescens, UniProt P52699); assay: Beta-lactamase enzyme inhibition (IC50); assay type: biochemical
T1 construct: expressed as native untagged proteins; made in house; host or cells: E. coli BL21(DE3)

[5] = Single dose plasma pharmacokinetics (fasted and non-fasted); assay type: in vivo, Cynomolgus monkeys; details: male, Cynomolgus, cynomolgus monkey, iv, 5 mg/kg
[6] = biological target: T2, SHV-5 (Klebsiella pneumoniae, UniProt P0A3M1); assay type: biochemical
T2 construct: expressed as native untagged proteins; made in house; host or cells: E. coli BL21(DE3)
Experimental: Assays (200 μl final volume) were performed in PBS in triplicate using 96-well microtiter plates. Cephalothin was used as the substrate for p99 AmpC and CTX-M-15 (50 μM for p99 AmpC; 75 μM for CTX-M-15) and reactions were initiated by addition of enzyme (0.2 nM p99 AmpC; 3 nM CTX-M-15). The decrease in the absorbance at λ260 nm was recorded continuously on a BioTek Powerwave XS2 microplate reader. […] SHV-5 reactions were initiated with 40 nM enzyme, using cefotaxime (100 μM) as the substrate. […] For KPC-2, imipenem (75 μM) was used as the substrate, and reactions initiated with 3 nM enzyme. Reaction progress was monitored by measuring the reduction in absorbance at λ300 nm in continuous fashion. […] Time courses for reaction progress were fit to the following equation, using Prism 7.04 (GraphPad Software, LaJolla, USA) to obtain kobs:
Off-rates for Compound 2 with the various beta-lactamases were determined by jump dilution experiments, performed in triplicate. Enzyme and inhibitor were incubated at room temperature for 10 minutes. Enzyme:inhibitor complexes were then diluted 800-fold into reaction buffer (50 mM Hepes, pH 7.0, 0.1 mg/ml BSA), and 20 μL of the diluted reaction immediately added to 180 μl of 110 μM nitrocefin in a 96-well microtiter plate, and the absorbance at λ 486 nm measured continuously on a BioTek Powerwave XS2 microplate reader. The resulting progress curves were fit to a single exponential, from which koff was derived. Half-life was determined using:
To determine Ki, plots of the inhibitor concentration versus inverse the initial velocity were fit to a linear equation, and the observed Ki corrected for substrate concentration and affinity by: […]

[7] = biological target: T3, OXA-1 (Escherichia coli, UniProt P13661); assay: Beta-lactamase enzyme inhibition (IC50); assay type: biochemical
T3 construct: expressed as native untagged proteins; made in house; host or cells: E. coli BL21(DE3)

[8] = biological target: T4, p99 AmpC (Enterobacter cloacae, UniProt P05364); assay type: biochemical
T4 construct: expressed as native untagged proteins; made in house; host or cells: E. coli BL21(DE3)

[9] = Metabolic stability in plasma; assay type: in vitro ADME, beagle dog; details: beagle, plasma; Dog; test conc. 3 μM
[10] = biological target: T5, KPC-2 (Klebsiella pneumoniae, UniProt Q9F663); assay: Beta-lactamase enzyme inhibition (IC50); assay type: biochemical
T5 construct: expressed as native untagged proteins; made in house; host or cells: E. coli BL21(DE3)

[11] = Metabolic stability in plasma; assay type: in vitro ADME, CD-1 mouse; details: CD-1, plasma; Mouse; test conc. 3 μM
[12] = Metabolic stability in intestinal S9; assay type: in vitro ADME; details: intestinal S9; Human; test conc. 3 μM
[13] = Metabolic stability in plasma; assay type: in vitro ADME; details: plasma; Human; test conc. 3 μM
[14] = Single ascending dose pharmacokinetics, Solutol HS-15:Water (20:80); assay type: in vivo, Sprague-Dawley rats; details: male, Sprague-Dawley, rat, plasma, iv, 10 mg/kg
Experimental: This study included dose concentrations ranging from 2-120 mg/mL.

[15] = Metabolic stability in liver S9; assay type: in vitro ADME, cynomolgus monkey; details: cynomolgus, liver S9; Monkey; test conc. 3 μM
[16] = Single dose plasma pharmacokinetics (fasted and non-fasted); assay type: in vivo, Beagle dogs; details: male, Beagle, dog, iv, 5 mg/kg
[17] = Metabolic stability in liver S9; assay type: in vitro ADME, Sprague-Dawley rat; details: Sprague-Dawley, liver S9; Rat; test conc. 3 μM
[18] = system: four beta-lactamase expressing Enterobacteriaceae (1 KPC, 1 p99, 1 CTX-M-15, and 1 OXA-48); assay: Time-kill kinetic analyses; assay type: cell-based; details: Compound 2 fixed at 4 μg/mL, 24 hours
Experimental: Activity was determined against four beta-lactamase expressing Enterobacteriaceae (1 KPC, 1 p99, 1 CTX-M-15, and 1 OXA-48). […] Macrodilution tubes were incubated with shaking and bacterial amounts were quantified at 0, 2, 4, 6, 8, and 24 hours by limiting dilutions. Amoxicillin/clavulanic acid (2:1) was used as a comparator oral antibacterial.

[19] = Metabolic stability in intestinal S9; assay type: in vitro ADME, CD-1 mouse; details: CD-1, intestinal S9; Mouse; test conc. 3 μM
[20] = biological target: T6, CTX-M-15 (Escherichia coli, UniProt Q9EXV5); assay: Beta-lactamase enzyme inhibition (IC50); assay type: biochemical
T6 construct: expressed as native untagged proteins; made in house; host or cells: E. coli BL21(DE3)

[21] = system: 21 beta-lactamase-producing Enterobacteriaceae strains; assay: Neutropenic mouse thigh infection model, dose ranging; assay type: in vivo, mice

**Q.** What does the source list for `Nc1nc(/C(=C/CC(=O)O)C(=O)N[C@@H]2C(=O)N3C(C(=O)O)=CCS[C@H]23)cs1` [Ceftibuten, ceftibuten, reference compound]?
**A.** Number of strains at MIC value 0.5 mg/L ([1]; KPC-expressing (n = 77)): 2; Number of strains at MIC value 1 mg/L ([1]; KPC-expressing (n = 77)): 2; Number of strains at MIC value 2 mg/L ([1]; KPC-expressing (n = 77)): 4; Number of strains at MIC value 4 mg/L ([1]; KPC-expressing (n = 77)): 7; Number of strains at MIC value 8 mg/L ([1]; KPC-expressing (n = 77)): 13; Number of strains at MIC value 16 mg/L ([1]; KPC-expressing (n = 77)): 24; Number of strains at MIC value […] ([1]; KPC-expressing (n = 77)): 0; Number of strains at MIC value ≤0.06 mg/L ([1]; KPC-expressing (n = 77)): 0; Number of strains at MIC value ≥32 mg/L ([1]; KPC-expressing (n = 77)): 25; MIC90 ([1]; iv): ≥ 32 µg/mL; Number of strains at MIC value 0.5 mg/L ([2]; AmpC/CMY-expressing (n = 44)): 0; Number of strains at MIC value 1 mg/L ([2]; AmpC/CMY-expressing (n = 44)): 1; Number of strains at MIC value 2 mg/L ([2]; AmpC/CMY-expressing (n = 44)): 5; Number of strains at MIC value 4 mg/L ([2]; AmpC/CMY-expressing (n = 44)): 3; Number of strains at MIC value 8 mg/L ([2]; AmpC/CMY-expressing (n = 44)): 7; Number of strains at MIC value 16 mg/L ([2]; AmpC/CMY-expressing (n = 44)): 7; Number of strains at MIC value […] ([2]; AmpC/CMY-expressing (n = 44)): 0; Number of strains at MIC value ≤0.06 mg/L ([2]; AmpC/CMY-expressing (n = 44)): 1; Number of strains at MIC value ≥32 mg/L ([2]; AmpC/CMY-expressing (n = 44)): 20; MIC50 ([2]; iv): ≥ 32 µg/mL; MIC90 ([2]; iv): ≥ 32 µg/mL

**Q.** For `CCC(=O)N[C@H]1Cc2cccc(C(=O)O)c2OB1O` [Compound 2, (R)-2-hydroxy-3-propionamido-3,4-dihydro-2H-benzo[e][1,2]oxaborinine-8-carboxylic acid], which AUC(0-inf) [3] is on record?
**A.** 39300 ng·h/mL

**Q.** And the Cmax [3]?
**A.** 54500 ng/mL

**Q.** What about the pIC50 [4] of the same compound?
**A.** < 4.00

**Q.** What about the AUC(0-inf) [5] of the same compound?
**A.** 38400 ng·h/mL

**Q.** And the Cmax [5]?
**A.** 38600 ng/mL

**Q.** What about the pKi [6] of the same compound?
**A.** 7.39

**Q.** And the “k−2” value [6]?
**A.** 12.7 ± 0.07 10^−4 s^−1

**Q.** And the t1/2 [6]?
**A.** 6.5 ± 0.04 min

**Q.** What about the pIC50 [7] of the same compound?
**A.** 7.18

**Q.** And the “k−2” value [8]?
**A.** 24 ± 0.5 10^−4 s^−1

**Q.** What about the t1/2 [8] of the same compound?
**A.** 5.0 ± 0.1 min

**Q.** And the half-life at 3 μM [9]?
**A.** > 2 h

**Q.** And the pIC50 [10]?
**A.** 7.10

**Q.** And the half-life at 3 μM [11]?
**A.** > 2 h

**Q.** And the half-life at 3 μM [12]?
**A.** > 2 h

**Q.** And the half-life at 3 μM [13]?
**A.** > 2 h

**Q.** And the AUC(0-inf) [14]?
**A.** 6700 ng·h/mL

**Q.** And the Cmax [14]?
**A.** 23700 ng/mL

**Q.** And the half-life at 3 μM [15]?
**A.** > 2 h

**Q.** And the AUC(0-inf) [16]?
**A.** 25500 ng·h/mL

**Q.** What about the Cmax [16] of the same compound?
**A.** 22400 ng/mL

**Q.** And the half-life at 3 μM [17]?
**A.** > 2 h

**Q.** What about the “rescue of ceftibuten to cidality in time-kill” value [18] of the same compound?
**A.** able to rescue ceftibuten to a cidal endpoint through 24 hours

**Q.** What about the half-life at 3 μM [19] of the same compound?
**A.** > 2 h

**Q.** And the pIC50 [20]?
**A.** 7.74

**Q.** What about the “rescue of ceftibuten activity” value ([21]; ceftibuten 300 mg q8h human-simulated regimen with Compound 2 q8h) of the same compound?
**A.** rescued ceftibuten activity in all 21 beta-lactamase-expressing strains

**Q.** What about the “Compound 2 median exposure at which net bacterial stasis was achieved” value ([21]; ceftibuten 300 mg q8h human-simulated regimen, interquartile range 3.06-18.56) of the same compound?
**A.** 8.98 mg·h/L
